“And” between values parts separate entries of the source, which are not always exact repeats. Equal entries are not always repeated. Where two headings read alike, the source gives them in different places.
Key:
[1] = biological target: cytochrome bc1 complex (Solanum tuberosum (Potato), UniProt P29757); experiment: Respiratory activity of potato mitochondria lacking AOX (cytochrome bc1 complex), oxygen electrode; type: biochemical; settings: 0.3 mg potato mitochondria respiring on 1 mM NADH, 25° C., 1 μM CCCP
Method: (§1) Following on from this work, the inventors set out to test whether or not these compounds also have any effect on the respiratory activity of cytochrome bc1 complex.
(§2) Respiratory activity was measured in a medium containing 0.3M mannitol, 10 mM KCl, 5 mM MgCl2, 1 mM potassium phosphate and 10 mM MOPS (3-(N-morpholino)propanesulfonic acid) buffer pH7.4. Either 0.9 mg of rat liver mitochondria respiring on 5 mM succinate or 0.3 mg potato mitochondria respiring on 1 mM NADH were used. Respiration was measured using a Rank oxygen electrode of 0.4 ml volume at 25° C. in the presence of 1 μM CCCP (Carbonyl cyanide […]). The results were compared with ascochlorin (a known bc1 inhibitor) and azoxystrobin (a commercial fungicide targeted at the bc1 complex).
(§3) Tables 3 and 4 summarise the concentration of inhibitor that was required to reduce the respiration of cytochrome bc1 complex (in the absence of AOX) by 50%. […] The lower the IC50 value the better, since it means that a lower amount of the compound is needed to halve the respiratory activity.

[2] = biological target: cytochrome bc1 complex (Rattus norvegicus (Rat), UniProt P00159); experiment: Respiratory activity of rat liver mitochondria lacking AOX (cytochrome bc1 complex), oxygen electrode; type: biochemical; settings: 0.9 mg rat liver mitochondria respiring on 5 mM succinate; 25° C.; 1 μM CCCP
Method: as §1, §2, §3

[3] = test system: Qo and Qi binding-sites of cytochrome bc1 complex; experiment: Titration using mitochondria in which the alternative oxidase is absent: bc1 binding sites inhibited; type: biochemical; settings: mitochondria without AOX
Text: as §1

[4] = test system: other quinol oxidases; experiment: Specificity versus other quinol oxidases; type: biochemical; settings: specific for membrane-bound and purified AOX
[5] = biological target: recombinant AOX protein (Trypanosoma brucei brucei, UniProt Q26710); experiment: biochemical; settings: purified recombinant AOX protein; oxygen consumption; 1 mM NADH as substrate
Method: Table 1 summarises the concentration of inhibitor required to reduce the respiration of purified recombinant AOX protein by 50%. Respiration was measured as the rate of oxygen consumption in the presence of 1 mM NADH as substrate and the numbers represent the final I50 concentration of the inhibitor.

[6] = read-out: IC50 (Potato mitochondria)

Compound: CC(/C=C/[C@@]1(C)[C@H](C)CCC(=O)[C@@H]1C)=C\Cc1c(O)c(Cl)c(C)c(C=O)c1O [Ascochlorin, ascochlorin]
- IC50 ([1]; IC50 (Potato mitochondria)): 500 nM
- IC50 [2]: 187 nM

Compound: C/C(=C\Cc1c(O)c(Cl)c(C)c(C=O)c1O)CC/C=C(\C)[C@@H]1CC(=O)C(C)(C)O1 [Ascofuranone]
- IC50 ([1]; IC50 (Potato mitochondria)): ~30000 nM and 30000 nM

Compound: CO/C=C(/C(=O)OC)c1ccccc1Oc1cc(Oc2ccccc2C#N)ncn1 [Azoxystrobin, azoxystrobin]
- IC50 [1, 6]: ~1400 nM and 1400 nM
- IC50 [2]: ~525 nM and 525 nM

Compound: CC(C)=CCC/C(C)=C/Cc1c(O)c(Cl)c(C)c(C=O)c1O [Colletochlorin B]
- IC50 [1, 6]: 750 nM
- cytochrome bc1 complex binding sites inhibited [3]: both the Qo and Qi binding-sites
- inhibition of other quinol oxidases [4]: did not appear to inhibit other quinol oxidases

Compound: CCCCCCCCOC(=O)c1cc(O)c(O)c(O)c1 [Octyl Gallate]
- IC50 [5]: 105 nM

— US11565996B2, “Compounds for use as inhibitors of alternative oxidase or cytochrome bc1 complex” (AlternOx Scientific Limited, priority 2012, dated 2023)
